Results: patent publication US20040097464A1, “Mixture of non-sulfated fucose-based oligosaccharides, a cosmetic or pharmaceutical composition comprising said mixture and its use in cosmetics or pharmacy” (priority 2000, published 2004)

Key:
Assay type in all cases: cell-based, human
MMP-2 [1] = experiment: MMP activity of skin fibroblasts stimulated with 1 mg/ml hyaluronane (zymography), expression of MMP-2; details: 1 mg/ml of hyaluronane, 10 μg/ml, 24 hours (section b.2 fibroblasts; title says skin explants not stimulated)
From the text: (§1) Skin fibroblast from a skin of the belly of a person were cultivated until the 7th cellular passage in a DMEM Glutamax (GIBCO) medium containing 1% of antibiotics and of fungicide and 10% of fetal calf serum and were used for the experiment. The fibroblasts were inseminated on 6-well plates at a density of 5.10^4 cells per well. When at the confluence, the culture medium was replaced by a DMEM medium, without phenol red containing 0.1% of BSA and containing the different substances to be treated at a concentration of 10 μg/ml. After 24 hours of culture at 37° C. (5% (v/v) CO2, 95% (v/v) air) the samples were recovered.
(§2) As in the case of the cultures of skin explants, the culture media of the fibroblasts were studied with zymography.
a.2.2) MMP Activity of the Fibroblasts of Skin Stimulated with 1 mg/ml of Hyaluronane
The protocol of the studies is the same as that used for the study of the MMP activity of the non-stimulated fibroblasts of skin, but with hyaluronane with a concentration of 1 mg/ml and the samples of oligosaccharides with a concentration of 10 μg/ml, added in the culture medium.
(§3) When the fibroblasts are cultivated in monolayer, only the widely secreted MMP-2 is visible with a very low quantity of MMP-9, however, present.

MMP-2 [2] = experiment: MMP activity of non-stimulated skin explants (gelatin zymography), MMP-2; details: 10 μg/ml, 48 hours
Description: (§4) Skin explants from a skin of the belly of a person were cultivated in a DMEM medium without phenol red (GIBCO) under stirring at 37° C. for 48 hours with different treatments. The samples were treated with a concentration of 10 μg/ml.
(§5) Extracellular medium-1 ml of medium
(§6) Intracellular medium-explant ground with ultraturax in 1 ml of MMP buffer
(§7) 0.1 M Tris-HCl, pH 7.5, 0.1 M NaCl, 10 mM CaCl2, 1 mM zinc acetate
(§8) Gelatin, substrate of the MMP-s, was co-polymerized at final 1 mg/ml with a gel of polyacrylamide at 10%. The extracellular media from the cultures of skin explant were deposited on the top of the gel, the electrophoresis was carried out at 150 volts. The gels were then incubated in MMP buffer for 24 hours under stirring at 37° C. The gels were then colored with Coomassie blue, then uncolored with distilled water. The lise ranges corresponding to an MMP activity, appeared as white, while the background of the gel was blue. In function of the distance of migration of proteins, one could determine the molecular weights of the enzymes having digested the gelatin. The MMP activity was quantified by morphometric analysis with the aid of a Visiolab computer.

MMP-2 [3] = experiment: MMP activity of skin explants stimulated with hyaluronane (gelatin zymography), MMP-2; details: skin explants stimulated with 1 mg/ml of hyaluronane, 10 μg/ml
Description: as §4
as §8, with “computer. […]” for “computer.”
(§9) The protocol of the studies was the same as that used for the study of the MMP activity of the non-stimulated skin explants, but with hyaluronane with a concentration of […] and the samples of oligosaccharides with a concentration of 10 μg/ml, added in the culture medium.

MMP-9 [4] = experiment: MMP activity of skin explants stimulated with hyaluronane (gelatin zymography), MMP-9; details: skin explants stimulated with 1 mg/ml of hyaluronane, 10 μg/ml
Description: as §4
as §8, with “computer. […]” for “computer.”
as §9

MMP-2 [5] = experiment: MMP activity of non-stimulated skin fibroblasts in monolayer (zymography), expression of MMP-2; details: 10 μg/ml, 24 hours (section b.2 fibroblasts; title says skin explants)
From the text: as §1
Extracellular medium−1 ml of medium+2 rinsings with 0.25 ml of PBS
Intracellular medium−cellular carpet sonicated with 1 ml of MMP buffer
MMP Buffer composition 0.1 M Tris-HCl, pH 7.5, 0.1 M NaCl, 10 mM CaCl2, 1 mM zinc acetate
as §2, §3

MMP-9 [6] = experiment: MMP activity of non-stimulated skin explants (gelatin zymography), MMP-9; details: 10 μg/ml, 48 hours
Description: as §4, §5, §6, §7, §8

C[C@H](O)[C@@H](O)[C@@H](O)[C@H](O)C=O [Fucose, fucose]
% effectiveness: reduction of the expression of MMP-2 with respect to the control (MMP-2 [1]): 11% | Active/Inactive MMP-2 (active form/inactive form relationship of the enzyme) (MMP-2 [2]): 0.80 | % of effectiveness: reduction of active/inactive relationship of MMP-2 (MMP-2 [2]; vs control): 6% | Active/Inactive MMP-2 (active form/inactive form relationship of the enzyme) (MMP-2 [3]): 1.65 | % effectiveness: reduction of active/inactive relationship of MMP-2 (MMP-2 [3]; vs control): Ns | Active/Inactive MMP-9 (active form/inactive form relationship of the enzyme) (MMP-9 [4]): 3.54 | % effectiveness: reduction of active/inactive relationship of MMP-9 (MMP-9 [4]; vs control): 50% | % of effectiveness: reduction of the expression of MMP-2 (MMP-2 [5]): 6% | Active/Inactive MMP-9 (active form/inactive form relationship of the enzyme) (MMP-9 [6]): 2.38 | % effectiveness: reduction of active/inactive relationship of MMP-9 (MMP-9 [6]; vs control): 57%
